Results published in patent US8877748B2, “Heterocyclic fused anthraquinone derivatives, manufacturing method and pharmaceutical composition using thereof” (National Defense Medical Center, priority 2012, dated 2014).

Tests used:
PC-3 = experiment: NCI one-dose screening, prostate cancer PC-3; assay type: cell-based, human; details: 10 μM
[1] = system: PC-3 prostate cancer cell line; experiment: SRB assay cell viability, PC-3 prostate cancer cell line; assay type: cell-based, human; details: PC-3 prostate cancer cell line, Table II prints no unit, μM printed, read-out: SRB assay: 50% inhibition of cancer cell proliferation of sample concentration (IC50) of PC-3 prostate cancer cell line
HOP-62 = experiment: NCI one-dose screening, non-small cell lung cancer HOP-62; assay type: cell-based, human; details: 10 μM
RXF, 393 = experiment: NCI one-dose screening, renal cancer RXF, 393; assay type: cell-based, human; details: 10 μM
[2] = NCI one-dose screening, renal cancer A489; assay type: cell-based, human; details: 10 μM
SF-295 = experiment: NCI one-dose screening, CNS cancer SF-295; assay type: cell-based, human; details: 10 μM
DU145 = experiment: NCI one-dose screening, prostate cancer DU145; assay type: cell-based, human; details: 10 μM
SNB-19 = experiment: NCI one-dose screening, CNS cancer SNB-19; assay type: cell-based, human; details: 10 μM
PRMI-8226 cell line = experiment: NCI one-dose screening, leukemia PRMI-8226; assay type: cell-based, human; details: 10 μM
UACC-62 = experiment: NCI one-dose screening, melanoma UACC-62; assay type: cell-based, human; details: 10 μM
SNB-75 = experiment: NCI one-dose screening, CNS cancer SNB-75; assay type: cell-based, human; details: 10 μM
SR = experiment: NCI one-dose screening, leukemia SR; assay type: cell-based, human; details: 10 μM
SK-MEL-2 = experiment: NCI one-dose screening, melanoma SK-MEL-2; assay type: cell-based, human; details: 10 μM
SF-539 = experiment: NCI one-dose screening, CNS cancer SF-539; assay type: cell-based, human; details: 10 μM
MALME-3M = experiment: NCI one-dose screening, melanoma MALME-3M; assay type: cell-based, human; details: 10 μM
MDA, -MB-435 = experiment: NCI one-dose screening, breast cancer MDA, -MB-435; assay type: cell-based, human; details: 10 μM; listed under Melanoma
KM12 = experiment: NCI one-dose screening, colon cancer KM12; assay type: cell-based, human; details: 10 μM
HS 578-T = experiment: NCI one-dose screening, breast cancer HS 578-T; assay type: cell-based, human; details: 10 μM; Breast cancer
MCF7 = experiment: NCI one-dose screening, breast cancer MCF7; assay type: cell-based, human; details: 10 μM
OVCAR-8 = experiment: NCI one-dose screening, ovarian cancer OVCAR-8; assay type: cell-based, human; details: 10 μM
UACC-257 = experiment: NCI one-dose screening, melanoma UACC-257; assay type: cell-based, human; details: 10 μM
UO-31 = experiment: NCI one-dose screening, renal cancer UO-31; assay type: cell-based, human; details: 10 μM
786-O = experiment: NCI one-dose screening, renal cancer 786-O; assay type: cell-based, human; details: 10 μM
SN12C = experiment: NCI one-dose screening, renal cancer SN12C; assay type: cell-based, human; details: 10 μM
NCI-H23 = experiment: NCI one-dose screening, non-small cell lung cancer NCI-H23; assay type: cell-based, human; details: 10 μM
IGROV1 = experiment: NCI one-dose screening, ovarian cancer IGROV1; assay type: cell-based, human; details: 10 μM
HOP-92 = experiment: NCI one-dose screening, non-small cell lung cancer HOP-92; assay type: cell-based, human; details: 10 μM
BT-549 = experiment: NCI one-dose screening, breast cancer BT-549; assay type: cell-based, human; details: 10 μM
CAKI-1 = experiment: NCI one-dose screening, renal cancer CAKI-1; assay type: cell-based, human; details: 10 μM
NCI-H460 = experiment: NCI one-dose screening, non-small cell lung cancer NCI-H460; assay type: cell-based, human; details: 10 μM
M14 = experiment: NCI one-dose screening, melanoma M14; assay type: cell-based, human; details: 10 μM
COLO 205 = experiment: NCI one-dose screening, colon cancer COLO 205; assay type: cell-based, human; details: 10 μM
NCl/ADR-RES = experiment: NCI one-dose screening, breast cancer NCl/ADR-RES; assay type: cell-based, human; details: 10 μM; listed under Ovarian cancer
ACHN = experiment: NCI one-dose screening, renal cancer ACHN; assay type: cell-based, human; details: 10 μM
HCC-2998 = experiment: NCI one-dose screening, colon cancer HCC-2998; assay type: cell-based, human; details: 10 μM
K562cell line = experiment: NCI one-dose screening, leukemia K562; assay type: cell-based, human; details: 10 μM
HL-60, TB = experiment: NCI one-dose screening, leukemia HL-60, TB; assay type: cell-based, human; details: 10 μM
OVCAR-3 = experiment: NCI one-dose screening, ovarian cancer OVCAR-3; assay type: cell-based, human; details: 10 μM
A549/ATCC = experiment: NCI one-dose screening, non-small cell lung cancer A549/ATCC; assay type: cell-based, human; details: 10 μM
HCT-15 = experiment: NCI one-dose screening, colon cancer HCT-15; assay type: cell-based, human; details: 10 μM
HCT-116 = experiment: NCI one-dose screening, colon cancer HCT-116; assay type: cell-based, human; details: 10 μM
MDA-MB-231/ATCC = experiment: NCI one-dose screening, breast cancer MDA-MB-231/ATCC; assay type: cell-based, human; details: 10 μM
SK-MEL-28 = experiment: NCI one-dose screening, melanoma SK-MEL-28; assay type: cell-based, human; details: 10 μM
U251 = experiment: NCI one-dose screening, CNS cancer U251; assay type: cell-based, human; details: 10 μM
MOLT-4 = experiment: NCI one-dose screening, leukemia MOLT-4; assay type: cell-based, human; details: 10 μM
SK-OV-3 = experiment: NCI one-dose screening, ovarian cancer SK-OV-3; assay type: cell-based, human; details: 10 μM
SF-268 = experiment: NCI one-dose screening, CNS cancer SF-268; assay type: cell-based, human; details: 10 μM
NCI-H226 = experiment: NCI one-dose screening, non-small cell lung cancer NCI-H226; assay type: cell-based, human; details: 10 μM
SK-MEL-5 = experiment: NCI one-dose screening, melanoma SK-MEL-5; assay type: cell-based, human; details: 10 μM
MDA-MB-468 = experiment: NCI one-dose screening, breast cancer MDA-MB-468; assay type: cell-based, human; details: 10 μM
human tumor cell lines = experiment: NCI one-dose screening, Mean / Delta / Range of growth percent over all tested cell lines; assay type: cell-based; details: 10 μM
HT29 = experiment: NCI one-dose screening, colon cancer HT29; assay type: cell-based, human; details: 10 μM
T-47D = experiment: NCI one-dose screening, breast cancer T-47D; assay type: cell-based, human; details: 10 μM
NCI-H522 = experiment: NCI one-dose screening, non-small cell lung cancer NCI-H522; assay type: cell-based, human; details: 10 μM
TK-10 = experiment: NCI one-dose screening, renal cancer TK-10; assay type: cell-based, human; details: 10 μM
OVCAR-5 = experiment: NCI one-dose screening, ovarian cancer OVCAR-5; assay type: cell-based, human; details: 10 μM
LOX IMVI = experiment: NCI one-dose screening, melanoma LOX IMVI; assay type: cell-based, human; details: 10 μM
EKVX = experiment: NCI one-dose screening, non-small cell lung cancer EKVX; assay type: cell-based, human; details: 10 μM

For “4-(o-phenylmethyl thio)anthra[2,1-c] [1,2,5]thiadiazol-6,11-dione [C48]”, the “Growth Percent PC-3” value (PC-3) was 73.26%, the IC50 [1] was over 15 µM and the “Growth Percent HOP-62” value (HOP-62) was 59.51%. The “Growth Percent RXF 393” value (RXF, 393) was 95.88%, the “Growth Percent A498” value [2] was 85.54% and the “Growth Percent SF-295” value (SF-295) was 104.92%. The “Growth Percent DU145” value (DU145) was 101.53%, the “Growth Percent SNB-19” value (SNB-19) was 103.54% and the “Growth Percent RPMI-8226” value (PRMI-8226 cell line) was 48.56%. For the same substance, the “Growth Percent UACC-62” value (UACC-62) was 90.69%, the “Growth Percent SNB-75” value (SNB-75) was 76.30% and the “Growth Percent SR” value (SR) was 23.00%. For the same substance, the “Growth Percent SK-MEL-2” value (SK-MEL-2) was 73.29%, the “Growth Percent SF-539” value (SF-539) was 78.04% and the “Growth Percent MALME-3M” value (MALME-3M) was 96.77%. For the same substance, the “Growth Percent MDA-MB-435” value (MDA, -MB-435) was 80.61%, the “Growth Percent KM12” value (KM12) was 103.11% and the “Growth Percent HS 578T” value (HS 578-T) was 83.69%. For the same substance, the “Growth Percent MCF7” value (MCF7) was 66.12%, the “Growth Percent OVCAR-8” value (OVCAR-8) was 76.29% and the “Growth Percent UACC-257” value (UACC-257) was 87.32%. The “Growth Percent UO-31” value (UO-31) was 62.14%, the “Growth Percent 786-0” value (786-O) was 100.36% and the “Growth Percent SN12C” value (SN12C) was 85.97%. The “Growth Percent NCI-H23” value (NCI-H23) was 53.21%, the “Growth Percent IGROV1” value (IGROV1) was 80.06% and the “Growth Percent HOP-92” value (HOP-92) was 89.91%. For the same substance, the “Growth Percent BT-549” value (BT-549) was 95.35%, the “Growth Percent CAKI-1” value (CAKI-1) was 81.47% and the “Growth Percent NCI-H460” value (NCI-H460) was 88.86%. The “Growth Percent M14” value (M14) was 94.25%, the “Growth Percent COLO 205” value (COLO 205) was 99.23% and the “Growth Percent NCI/ADR-RES” value (NCl/ADR-RES) was 59.53%. For the same substance, the “Growth Percent ACHN” value (ACHN) was 89.76%, the “Growth Percent HCC-2998” value (HCC-2998) was 124.00% and the “Growth Percent K562” value (K562cell line) was 32.30%. For the same substance, the “Growth Percent HL-60(TB)” value (HL-60, TB) was −79.53%, the “Growth Percent OVCAR-3” value (OVCAR-3) was 5.30% and the “Growth Percent A549/ATCC” value (A549/ATCC) was 104.68%. For the same substance, the “Growth Percent HCT-15” value (HCT-15) was 38.57%, the “Growth Percent HCT-116” value (HCT-116) was 92.15% and the “Growth Percent MDA-MB-231/ATCC” value (MDA-MB-231/ATCC) was 60.72%. For the same substance, the “Growth Percent SK-MEL-28” value (SK-MEL-28) was 105.73%, the “Growth Percent U251” value (U251) was 62.36% and the “Growth Percent MOLT-4” value (MOLT-4) was 67.31%. For the same substance, the “Growth Percent SK-OV-3” value (SK-OV-3) was 93.79%, the “Growth Percent SF-268” value (SF-268) was 74.73% and the “Growth Percent NCI-H226” value (NCI-H226) was 95.71%. For the same substance, the “Growth Percent SK-MEL-5” value (SK-MEL-5) was 87.54%, the “Growth Percent MDA-MB-468” value (MDA-MB-468) was 53.68% and the “Growth Percent Delta” value (human tumor cell lines; delta over all cell lines) was 75.31%. For the same substance, the “Growth Percent Mean” value (human tumor cell lines; mean over all cell lines) was 80.61%, the “Growth Percent Range” value (human tumor cell lines; range over all cell lines) was 120.98% and the “Growth Percent HT29” value (HT29) was 104.31%. The “Growth Percent T-47D” value (T-47D) was 51.89%, the “Growth Percent NCI-H522” value (NCI-H522) was 74.81% and the “Growth Percent TK-10” value (TK-10) was 122.97%. The “Growth Percent OVCAR-5” value (OVCAR-5) was 126.28%, the “Growth Percent LOX IMVI” value (LOX IMVI) was 30.01% and the “Growth Percent EKVX” value (EKVX) was 104.56%.
